# From ChEMBL document CHEMBL5260810, “Inhibition of bromodomain-containing protein 9 for the prevention of epigenetically-defined drug resistance” (Bioorg Med Chem Lett, 2017)
# How the values were obtained:
# Type in all cases: functional, cell-based
# [1] = Cytotoxicity against human COV362.4 cells measured after 8 days; conditions: COV362.4, 192 h
# SUP-B15 = assay: Cytotoxicity against human SUP-B15 cells measured after 8 days; conditions: SUP-B15, 192 h
# [2] = Cytotoxicity against human SNU-668 cells measured after 8 days; conditions: SNU668, 192 h
# SNU-182 = assay: Cytotoxicity against human SNU-182 cells measured after 8 days; conditions: SNU-182, 192 h
# Rec1 = assay: Cytotoxicity against human REC1 cells measured after 8 days; conditions: Rec1, 192 h
# TMD8 = assay: Cytotoxicity against human TMD8 cells measured after 8 days; conditions: TMD8, 192 h
# [3] = Cytotoxicity against human HEC-6 cells measured after 8 days; conditions: HEC-6, 192 h
# [4] = Cytotoxicity against human NCE-G 61 cells measured after 8 days; conditions: NCE-G 61, 192 h
# [5] = Cytotoxicity against human HCSC-1 cells measured after 8 days; conditions: HCSC-1, 192 h
# [6] = Cytotoxicity against human 51BLim 10 cells measured after 8 days; conditions: 51BLim 10, 192 h
# FaDu = assay: Cytotoxicity against human FaDu cells measured after 8 days; conditions: 192 h
# MHH-ES-1 = assay: Cytotoxicity against human MHH-ES-1 cells measured after 8 days; conditions: MHH-ES-1, 192 h
# 23132-87 = assay: Cytotoxicity against human 23132-87 cells measured after 8 days; conditions: 23132-87, 192 h
# OVCAR-4 = assay: Cytotoxicity against human OVCAR-4 cells measured after 8 days; conditions: OVCAR-4, 192 h
# [7] = Cytotoxicity against human NCI-H2461 cells measured after 8 days; conditions: NCI-H2461, 192 h
# Huh-7 = assay: Cytotoxicity against human Huh-7 cells measured after 8 days; conditions: Huh-7, 192 h
# NCI-H417 = assay: Cytotoxicity against human NCI-H417 cells measured after 8 days; conditions: NCI-H417, 192 h
# [8] = Cytotoxicity against human GOS-3 cells measured after 8 days; conditions: GOS-3, 192 h
# [9] = Cytotoxicity against human SC1 cells measured after 8 days; conditions: SC-1, 192 h
# BHY = assay: Cytotoxicity against human BHY cells measured after 8 days; conditions: 192 h
# [10] = Cytotoxicity against human QGP-1 cells measured after 8 days; conditions: QGP-1, 192 h
# SK-N-BE(2)-M17 = assay: Cytotoxicity against human SK-N-BE(2)-M17 cells measured after 8 days; conditions: SK-N-BE(2)-M17, 192 h
# BCPAP = assay: Cytotoxicity against human BCPAP cells measured after 8 days; conditions: 192 h
# EMT6 = assay: Cytotoxicity against mouse EMT6 Luciferase cells measured after 8 days; conditions: EMT6, 192 h
# A498 = assay: Cytotoxicity against human A498 cells measured after 8 days; conditions: A498, 192 h
# [11] = Cytotoxicity against human NCE-G 118 cells measured after 8 days; conditions: NCE-G 118, 192 h
# CAKI-2 = assay: Cytotoxicity against human CAKI-2 cells measured after 8 days; conditions: CAKI-2, 192 h
# DMS-273 = assay: Cytotoxicity against human DMS-273 cells measured after 8 days; conditions: DMS-273, 192 h
# [12] = Cytotoxicity against human NCE-G 120 cells measured after 8 days; conditions: NCE-G 120, 192 h
# [13] = Cytotoxicity against human KPP-1 cells measured after 8 days; conditions: KPP-1, 192 h
# [14] = Cytotoxicity against human NCE-G 124 cells measured after 8 days; conditions: NCE-G 124, 192 h
# [15] = Cytotoxicity against human COLO-704 cells measured after 8 days; conditions: COLO 704, 192 h
# HMV-2 cell line = assay: Cytotoxicity against human HMV-2 cell line measured after 8 days; conditions: HMV-2, 192 h
# SW982 = assay: Cytotoxicity against human SW982 cells measured after 8 days; conditions: SW982, 192 h
# SK-CO-1 = assay: Cytotoxicity against human SK-CO-1 cells measured after 8 days; conditions: SK-CO-1, 192 h
# [16] = Cytotoxicity against human UCSD-242L cells measured after 8 days; conditions: 192 h
# [17] = Cytotoxicity against human Panc 04.03 cells measured after 8 days; conditions: Panc 04.03, 192 h
# [18] = Cytotoxicity against human T.T cells measured after 8 days; conditions: TT, 192 h
# [19] = Cytotoxicity against human PK-45P cells measured after 8 days; conditions: 192 h
# GI-1 = assay: Cytotoxicity against human GI-1 cells measured after 8 days; conditions: GI-1, 192 h
# SNU-423 = assay: Cytotoxicity against human SNU-423 cells measured after 8 days; conditions: SNU-423, 192 h
# C-33-A = assay: Cytotoxicity against human C-33-A cells measured after 8 days; conditions: 192 h
# NCI-H2170 = assay: Cytotoxicity against human NCI-H2170 cells measured after 8 days; conditions: NCI-H2170, 192 h
# COLO 201 = assay: Cytotoxicity against human COLO201 cells measured after 8 days; conditions: COLO 201, 192 h
# [20] = Cytotoxicity against human 4498-14745 Mel-BR3 cells measured after 8 days; conditions: 4498-14745 Mel-BR3, 192 h
# IMR-32 = assay: Cytotoxicity against human IMR-32 cells measured after 8 days; conditions: IMR-32, 192 h
# B16-F1 = assay: Cytotoxicity against mouse B16-F1 cells measured after 8 days; conditions: B16-F1, 192 h
# CAPAN-1 = assay: Cytotoxicity against human CAPAN-1 cells measured after 8 days; conditions: CAPAN-1, 192 h
# [21] = Cytotoxicity against human RMUG-S cells measured after 8 days; conditions: 192 h
# [22] = Cytotoxicity against human HCC1623 cells measured after 8 days; conditions: HCC1623, 192 h
# [23] = Cytotoxicity against human UKE-1 cells measured after 8 days; conditions: UKE1, 192 h
# HuP-T3 = assay: Cytotoxicity against human HuP-T3 cells measured after 8 days; conditions: HuP-T3, 192 h
# [24] = Cytotoxicity against human Li-7 cells measured after 8 days; conditions: Li-7, 192 h
# [25] = Cytotoxicity against human MS751 cells measured after 8 days; conditions: MS751, 192 h
# Jurkat = assay: Cytotoxicity against human Jurkat cells measured after 8 days; conditions: 192 h
# AM-38 = assay: Cytotoxicity against human AM-38 cells measured after 8 days; conditions: AM-38, 192 h
# [26] = Cytotoxicity against human CL-11 cells measured after 8 days; conditions: CL-11, 192 h
# [27] = Cytotoxicity against human NCI-H2135 cells measured after 8 days; conditions: NCI-H2135, 192 h
# SW626 = assay: Cytotoxicity against human SW626 cells measured after 8 days; conditions: SW626, 192 h
# H322 = assay: Cytotoxicity against human H322 cells measured after 8 days; conditions: NCI-H322, 192 h
# MeWo = assay: Cytotoxicity against human MeWo cells measured after 8 days; conditions: 192 h
structure (smiles),measurement,setting,value
C/C=C/Cn1cc(-c2ccc(C(C)(C)O)cc2OC)c2cc[nH]c2c1=O,IC50,[1],20 µM
same,IC50,SUP-B15,20 µM
same,IC50,[2],20 µM
same,IC50,SNU-182,20 µM
same,IC50,Rec1,16.4 µM
same,IC50,TMD8,20 µM
same,IC50,[3],20 µM
same,IC50,[4],20 µM
same,IC50,[5],20 µM
same,IC50,[6],20 µM
same,IC50,FaDu,20 µM
same,IC50,MHH-ES-1,20 µM
same,IC50,23132-87,20 µM
same,IC50,OVCAR-4,20 µM
same,IC50,[7],20 µM
same,IC50,Huh-7,20 µM
same,IC50,NCI-H417,20 µM
same,IC50,[8],20 µM
same,IC50,[9],17.8 µM
same,IC50,BHY,20 µM
same,IC50,[10],20 µM
same,IC50,SK-N-BE(2)-M17,20 µM
same,IC50,BCPAP,20 µM
same,IC50,EMT6,20 µM
same,IC50,A498,20 µM
same,IC50,[11],20 µM
same,IC50,CAKI-2,20 µM
same,IC50,DMS-273,20 µM
same,IC50,[12],20 µM
same,IC50,[13],20 µM
same,IC50,[14],20 µM
same,IC50,[15],20 µM
same,IC50,HMV-2 cell line,20 µM
same,IC50,SW982,20 µM
same,IC50,SK-CO-1,20 µM
same,IC50,[16],20 µM
same,IC50,[17],20 µM
same,IC50,[18],20 µM
same,IC50,[19],20 µM
same,IC50,GI-1,20 µM
same,IC50,SNU-423,20 µM
same,IC50,C-33-A,20 µM
same,IC50,NCI-H2170,20 µM
same,IC50,COLO 201,20 µM
same,IC50,[20],20 µM
same,IC50,IMR-32,20 µM
same,IC50,B16-F1,20 µM
same,IC50,CAPAN-1,20 µM
same,IC50,[21],20 µM
same,IC50,[22],20 µM
same,IC50,[23],20 µM
same,IC50,HuP-T3,14.1 µM
same,IC50,[24],20 µM
same,IC50,[25],20 µM
same,IC50,Jurkat,14.8 µM
same,IC50,AM-38,20 µM
same,IC50,[26],20 µM
same,IC50,[27],20 µM
same,IC50,SW626,20 µM
same,IC50,H322,20 µM
same,IC50,MeWo,20 µM
C/C=C/Cn1cc(-c2ccc(C(=O)N3CCOCC3)cc2)c2cc[nH]c2c1=O,IC50,[1],20 µM
same,IC50,SUP-B15,20 µM
same,IC50,[2],20 µM
same,IC50,SNU-182,20 µM
same,IC50,Rec1,20 µM
same,IC50,TMD8,20 µM
same,IC50,[3],20 µM
same,IC50,[4],20 µM
same,IC50,[5],20 µM
same,IC50,[6],12.2 µM
same,IC50,FaDu,20 µM
same,IC50,MHH-ES-1,20 µM
same,IC50,23132-87,20 µM
same,IC50,OVCAR-4,20 µM
same,IC50,[7],20 µM
same,IC50,Huh-7,20 µM
same,IC50,NCI-H417,20 µM
same,IC50,[8],20 µM
same,IC50,[9],20 µM
same,IC50,BHY,20 µM
same,IC50,[10],20 µM
same,IC50,SK-N-BE(2)-M17,20 µM
same,IC50,BCPAP,20 µM
same,IC50,EMT6,20 µM
same,IC50,A498,20 µM
same,IC50,[11],20 µM
same,IC50,CAKI-2,20 µM
same,IC50,DMS-273,20 µM
same,IC50,[12],20 µM
same,IC50,[13],10.9 µM
same,IC50,[14],20 µM
same,IC50,[15],20 µM
same,IC50,HMV-2 cell line,20 µM
same,IC50,SW982,20 µM
same,IC50,SK-CO-1,20 µM
same,IC50,[16],20 µM
same,IC50,[17],20 µM
same,IC50,[18],20 µM
same,IC50,[19],20 µM
same,IC50,GI-1,20 µM
same,IC50,SNU-423,20 µM
same,IC50,C-33-A,20 µM
same,IC50,NCI-H2170,20 µM
same,IC50,COLO 201,20 µM
same,IC50,[20],20 µM
same,IC50,IMR-32,20 µM
same,IC50,B16-F1,13.5 µM
same,IC50,CAPAN-1,20 µM
same,IC50,[21],20 µM
same,IC50,[22],20 µM
same,IC50,[23],12.4 µM
same,IC50,HuP-T3,20 µM
same,IC50,[24],20 µM
same,IC50,[25],20 µM
same,IC50,Jurkat,20 µM
same,IC50,AM-38,20 µM
same,IC50,[26],20 µM
same,IC50,[27],20 µM
same,IC50,SW626,20 µM
same,IC50,H322,20 µM
same,IC50,MeWo,20 µM
